This is an account of results in PubChem BioAssay AID248 (DTP/NCI, 2004).

“And” between values parts separate entries of the source, which are not always exact repeats. Equal entries are not always repeated. Inconclusive results and toxic doses are left out.

The test system of the assay is L1210 leukemia ip in BDF1 mice, survival T/C. Kind of assay: NCI In Vivo Anticancer Drug Screen. Data for tumor model L1210 Leukemia (intraperitoneal) in B6D2F1 (BDF1) mice. Particulars: higher = longer survival. The procedure, abridged:
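Antitumor effect is assessed in tumor-bearing animals. Survival in the compound arm is compared with a vehicle-dosed control arm and expressed as their quotient.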

Where [1] appears, read: endpoint: mean survival time, dose: 100.0 mg/kg/injection, schedule: Q04DX002 (ip), vehicle: saline with Tween-80.
The mark [2] stands for this setting: endpoint: mean survival time, dose: 200.0 mg/kg/injection, schedule: Q04DX002 (ip), vehicle: saline with Tween-80.
Where [3] appears, read: endpoint: mean survival time, dose: 400.0 mg/kg/injection, schedule: Q04DX002 (ip), vehicle: saline with Tween-80.
Setting [4] is: endpoint: mean survival time, dose: 50.0 mg/kg/injection, schedule: Q01DX001 (ip), vehicle: saline.
The mark [5] stands for this setting: endpoint: mean survival time, dose: 100.0 mg/kg/injection, schedule: Q01DX001 (ip), vehicle: saline.
Where [6] appears, read: endpoint: mean survival time, dose: 200.0 mg/kg/injection, schedule: Q01DX001 (ip), vehicle: saline.
[7] abbreviates: endpoint: mean survival time, dose: 400.0 mg/kg/injection, schedule: Q01DX001 (ip), vehicle: saline.
Setting [8] is: endpoint: mean survival time, dose: 100.0 mg/kg/injection, schedule: Q01DX009 (ip), vehicle: Klucel (hydroxypropylcellulose) (HPC).
Setting [9] is: endpoint: mean survival time, dose: 200.0 mg/kg/injection, schedule: Q01DX009 (ip), vehicle: Klucel (hydroxypropylcellulose) (HPC).
Setting [10] is: endpoint: mean survival time, dose: 100.0 mg/kg/injection, schedule: Q04DX003 (ip), vehicle: Klucel (hydroxypropylcellulose) (HPC).
Where [11] appears, read: endpoint: mean survival time, dose: 200.0 mg/kg/injection, schedule: Q04DX003 (ip), vehicle: Klucel (hydroxypropylcellulose) (HPC).
The mark [12] stands for this setting: endpoint: mean survival time, dose: 100.0 mg/kg/injection, schedule: Q01DX009 (ip), vehicle: saline with Tween-80.
The mark [13] stands for this setting: endpoint: mean survival time, dose: 200.0 mg/kg/injection, schedule: Q01DX009 (ip), vehicle: saline with Tween-80.

`C/C(=N/NC(=O)CC#N)c1ccccc1`: the T/C runs as follows: under setting [1], 101 % of control; under setting [2], 104 % of control; under setting [3], 95 % of control.
As for `OC1Cn2cc(Br)c[n+]2C1` (centres undefined), the T/C is, setting by setting: under setting [4], 94 % of control; under setting [5], 116 % of control; under setting [6], 102 % of control; under setting [7], 96 % of control.
On to `Cn1nc(SCc2ccccc2)c(N)nc1=O`, for which the T/C by setting is: under setting [5], 102 % of control; under setting [6], 100 % of control; under setting [7], 101 % of control.
With `COc1cc(C(=O)Nc2ccccc2SC)cc(OC)c1OC`, the T/C (endpoint: mean survival time, dose: 100.0 mg/kg/injection, schedule: Q04DX002 (ip), vehicle: Klucel (hydroxypropylcellulose) (HPC)) was 100 % of control; the T/C (endpoint: mean survival time, dose: 200.0 mg/kg/injection, schedule: Q04DX002 (ip), vehicle: Klucel (hydroxypropylcellulose) (HPC)) is 97 % of control; the T/C (endpoint: mean survival time, dose: 400.0 mg/kg/injection, schedule: Q04DX002 (ip), vehicle: Klucel (hydroxypropylcellulose) (HPC)) was 90 % of control.
Consider `CCC[CH2][Sn]([CH2]CC#N)([CH2]CCC)[CH2]CCC`, for which the T/C (endpoint: mean survival time, dose: 25.0 mg/kg/injection, schedule: Q04DX002 (ip), vehicle: saline) is 97 % of control and the T/C (endpoint: mean survival time, dose: 50.0 mg/kg/injection, schedule: Q04DX002 (ip), vehicle: saline) was 94 % of control.
With `O=C(O)c1cc(N=C2C=CC(=C(c3ccccc3)c3ccc(Nc4ccc(Cl)c(C(=O)O)c4)cc3)C=C2)ccc1Cl`, the T/C (endpoint: mean survival time, dose: 100.0 mg/kg/injection, schedule: Q01DX001 (ip), vehicle: other) was 97 % of control; the T/C under setting [8] is 105 % of control; the T/C (endpoint: mean survival time, dose: 200.0 mg/kg/injection, schedule: Q01DX001 (ip), vehicle: other) was 100 % of control; the T/C under setting [9] was 97 % of control; the T/C (endpoint: mean survival time, dose: 400.0 mg/kg/injection, schedule: Q01DX001 (ip), vehicle: other) was 103 % of control.
Consider `CC(=O)CC(=O)Nc1cccc(Cl)c1`, for which the T/C is 108 % of control (endpoint: mean survival time, dose: 15.0 mg/kg/injection, schedule: Q01DX001 (ip), vehicle: carboxymethylcellulose (CMC)) and 108 % of control (endpoint: mean survival time, dose: 30.0 mg/kg/injection, schedule: Q01DX001 (ip), vehicle: carboxymethylcellulose (CMC)).
On to `CCCCCCCCCCCC(=O)NC(=S)Nc1ccccc1F`, for which the T/C reads like this: under setting [10], 95 % of control; under setting [11], 87 % of control.
For `Cc1cccc(C)c1N=C(N)NN`, the T/C runs as follows: (endpoint: mean survival time, dose: 25.0 mg/kg/injection, schedule: Q01DX009 (ip), vehicle: saline) 100 % of control; (endpoint: mean survival time, dose: 50.0 mg/kg/injection, schedule: Q01DX009 (ip), vehicle: saline) 101 % of control; (endpoint: mean survival time, dose: 50.0 mg/kg/injection, schedule: Q04DX003 (ip), vehicle: saline) 117 % of control; under setting [5], 96 % of control; (endpoint: mean survival time, dose: 100.0 mg/kg/injection, schedule: Q01DX009 (ip), vehicle: saline) 95 % of control; (endpoint: mean survival time, dose: 100.0 mg/kg/injection, schedule: Q04DX003 (ip), vehicle: saline) 106 % of control. In addition, the T/C under setting [6] was 98 % of control.
As to `CCOC(=O)c1ccc(NC(=O)Nc2cccc(C(C)=O)c2)cc1`, the T/C is 95 % of control under setting [8]; 93 % of control under setting [9]; 101 % of control (endpoint: mean survival time, dose: 400.0 mg/kg/injection, schedule: Q01DX009 (ip), vehicle: Klucel (hydroxypropylcellulose) (HPC)).
As for `CC1(C)OC2OC(C(O)c3cn(-c4ccccc4)nn3)C(O)C2O1` (centres undefined), the T/C runs as follows: under setting [1], 97 % of control; under setting [2], 93 % of control; under setting [3], 110 % of control.
For `CCCCN(CCCCS(=O)(=O)O)c1ccc(N=Nc2cc(Cl)ccc2Cl)cc1`, the T/C under setting [10] is 94 % of control and the T/C under setting [11] was 105 % of control.
With `CN(C)c1ccc(/C=C\c2cc(/C=C/c3ccc(N(C)C)cc3)c([N+](=O)[O-])cc2[N+](=O)[O-])cc1`, the T/C is, setting by setting: (endpoint: mean survival time, dose: 75.0 mg/kg/injection, schedule: Q01DX001 (ip), vehicle: saline) 98 % of control and 89 % of control; (endpoint: mean survival time, dose: 150.0 mg/kg/injection, schedule: Q01DX001 (ip), vehicle: saline) 86 % of control; (endpoint: mean survival time, dose: 300.0 mg/kg/injection, schedule: Q01DX001 (ip), vehicle: saline) 95 % of control and 101 % of control.
As for `Nc1c(Cl)cc2c(c1Cl)Cc1c-2cc(Br)c(N)c1Br`, the T/C reads like this: (endpoint: median survival time, dose: 5.0 mg/kg/injection, schedule: Q04DX003 (ip), vehicle: saline) 121 % of control; (endpoint: median survival time, dose: 10.0 mg/kg/injection, schedule: Q04DX003 (ip), vehicle: saline) 153 % of control; (endpoint: median survival time, dose: 20.0 mg/kg/injection, schedule: Q04DX003 (ip), vehicle: saline) 180 % of control; (endpoint: median survival time, dose: 40.0 mg/kg/injection, schedule: Q04DX003 (ip), vehicle: saline) 223 % of control; (endpoint: median survival time, dose: 50.0 mg/kg/injection, schedule: Q07DX003 (ip), vehicle: saline) 211 % of control; (endpoint: median survival time, dose: 80.0 mg/kg/injection, schedule: Q04DX003 (ip), vehicle: saline) 223 % of control. Moreover, the T/C (endpoint: median survival time, dose: 100.0 mg/kg/injection, schedule: Q07DX003 (ip), vehicle: saline) is 202 % of control; the T/C (endpoint: median survival time, dose: 200.0 mg/kg/injection, schedule: Q07DX003 (ip), vehicle: saline) is 54 % of control; the T/C (endpoint: median survival time, dose: 400.0 mg/kg/injection, schedule: Q07DX003 (ip), vehicle: saline) was 53 % of control.
Consider `Cc1cc(C)c2c(c1)NP(=S)(c1ccccc1)N2` (centres undefined), for which the T/C was 93 % of control (endpoint: mean survival time, dose: 75.0 mg/kg/injection, schedule: Q04DX002 (ip), vehicle: gum acacia); 93 % of control (endpoint: mean survival time, dose: 150.0 mg/kg/injection, schedule: Q04DX002 (ip), vehicle: gum acacia); 93 % of control (endpoint: mean survival time, dose: 300.0 mg/kg/injection, schedule: Q04DX002 (ip), vehicle: gum acacia).
Take `COc1nc(=O)n(C2CCCO2)cc1I` (centres undefined): the T/C was 95 % of control under setting [4], 95 % of control under setting [5] and 90 % of control under setting [6].
For the compound `CCOC(=O)CCSC`, the T/C is 100 % of control (endpoint: mean survival time, dose: 50.0 mg/kg/injection, schedule: Q01DX009 (ip), vehicle: saline with Tween-80); 97 % of control under setting [12]; 93 % of control (endpoint: mean survival time, dose: 100.0 mg/kg/injection, schedule: Q04DX003 (ip), vehicle: saline with Tween-80); 92 % of control under setting [13]; 96 % of control (endpoint: mean survival time, dose: 200.0 mg/kg/injection, schedule: Q04DX003 (ip), vehicle: saline with Tween-80).
For the compound `Cc1cc(/C=N/NC(=O)CCCC(=O)N/N=C/c2cc(C)n(-c3ccccc3)c2C)c(C)n1-c1ccccc1`, the T/C is 98 % of control under setting [4], 93 % of control under setting [5], 95 % of control under setting [6] and 89 % of control under setting [7].
With `COc1ccc(C=Nc2ccc3c(c2)OCO3)cc1Br`, the T/C is 88 % of control under setting [12]; 108 % of control under setting [1]; 101 % of control under setting [13]; 102 % of control under setting [2]; 103 % of control (endpoint: mean survival time, dose: 400.0 mg/kg/injection, schedule: Q01DX009 (ip), vehicle: saline with Tween-80); 97 % of control under setting [3].
Take `Cc1cc2oc(=O)c3c(c2c(O)c1CN1CCCCC1)CCCC3`: the T/C was 98 % of control (endpoint: mean survival time, dose: 100.0 mg/kg/injection, schedule: Q01DX001 (ip), vehicle: carboxymethylcellulose (CMC)); 98 % of control (endpoint: mean survival time, dose: 200.0 mg/kg/injection, schedule: Q01DX001 (ip), vehicle: carboxymethylcellulose (CMC)); 96 % of control (endpoint: mean survival time, dose: 400.0 mg/kg/injection, schedule: Q01DX001 (ip), vehicle: carboxymethylcellulose (CMC)).
As to `O=C1c2ccccc2C(=O)c2[nH]ncc21`, the T/C under setting [1] is 102 % of control, the T/C under setting [2] is 95 % of control and the T/C under setting [3] was 91 % of control.
As for `S=C(N/N=C/c1ccc2c(c1)CCC2)Nc1ccccc1`, the T/C under setting [10] is 103 % of control; the T/C under setting [11] is 92 % of control; the T/C (endpoint: mean survival time, dose: 400.0 mg/kg/injection, schedule: Q04DX003 (ip), vehicle: Klucel (hydroxypropylcellulose) (HPC)) is 100 % of control.
Regarding `CCC(C)(CO)N=Cc1ccccc1O.CCC(C)(O)/N=C/c1ccccc1O.[Cu].[Cu]` (centres undefined), the T/C was 100 % of control (endpoint: mean survival time, dose: 9.5 mg/kg/injection, schedule: Q01DX001 (ip), vehicle: other); 97 % of control (endpoint: mean survival time, dose: 19.0 mg/kg/injection, schedule: Q01DX001 (ip), vehicle: other); 86 % of control (endpoint: mean survival time, dose: 38.0 mg/kg/injection, schedule: Q01DX001 (ip), vehicle: other).
